# Test results taken from PMC2749490 (Bioorganic & medicinal chemistry, 2009).
# Like-named read-outs stand apart in the source and are kept apart here. *1 amine or outer side, *2 acyl side, *3 side chain or, on linkers, in order; H or OH if unused. Where a SMILES comes first, the peptide text is derived from it. Bridges are numbered along the chain shown (N, C = ends). Where no end group is shown, it is not given here. [ ]: non-standard residue; d: D form. The star is where a group is joined. Staurosporine = CO[C@@H]1[C@H](N(C)*)C[C@H]2O[C@]1(C)n1c3ccccc3c3c4c(c5c6ccccc6n2c5c31)C(=O)NC4; Suc = O=C(CCC(=O)[*:2])[*:1]; Dap = NC[C@H](N)C(=O)O; βAla = NCCC(=O)O
# Experiments:
# [1] = biological target: T1, cAMP-dependent protein kinase (PKA) (Homo sapiens, UniProt P17612); test: PKA inhibitor IC50 determination; assay type: biochemical
# [2] = biological target: T1, cAMP-dependent protein kinase (PKA); conditions: earlier proof-of-principle studies; cited from earlier work
# PKA [3] = biological target: T2, PKA (Homo sapiens, UniProt P17612); assay type: biochemical; conditions: versus Kemptide
# PKA [4] = biological target: T2, PKA; test: PKA kinase assays in the presence of 7.5 mM DTT; assay type: biochemical
compound,measurement,setting,value
"CC(C)[C@@H]1NC(=O)[C@H](CCCNC(=N)N)NC(=O)[C@H](Cc2ccccc2)NC(=O)[C@H]([C@@H](C)O)NC(=O)[C@@H](NC(=O)CCNC(=O)CCNC(=O)CCNC(=O)CCNC(=O)CCNC(=O)CCNC(=O)CCNC(=O)[C@H]2O[C@@H](n3cnc4c(N)ncnc43)[C@H](O)[C@@H]2O)CSSC[C@@H](C(=O)NCC(N)=O)NC(=O)CNC(=O)[C@H](Cc2ccccc2)NC1=O [compound 6] (HELM PEPTIDE1{[Nc1ncnc2c1ncn2[C@@H]1O[C@H](C(=O)[*:2])[C@@H](O)[C@H]1O].[bAla].[bAla].[bAla].[bAla].[bAla].[bAla].[bAla].C.T.F.R.V.F.G.C.G.[am]}$PEPTIDE1,PEPTIDE1,9:R3-16:R3$$$V2.0)",improvement from the adenosine derivative 6a,[1]; ratio of PKA IC50 values,> 300 fold
cyclo(CTFRVFGC)G [1b],IC50,[2],57 µM
cyclo(CTFRVFGC)G (CTFRVFGCG; disulfide 1-8 (inferred)) [1b],mode of inhibition with respect to peptide substrate (best-fit model),PKA [3],noncompetitive
Nc1ncnc2c1ncn2[C@@H]1O[C@H](C(=O)O)[C@@H](O)[C@H]1O [6a],IC50,[1],> 1000 µM
CO[C@@H]1[C@H](N(C)C(=O)CCC(=O)NCCC(=O)NCCC(=O)NCCC(=O)NCCC(=O)NCCC(=O)NCCC(=O)NCCC(=O)N[C@H]2CC(=O)NC[C@@H](C(=O)NCC(N)=O)NC(=O)CNC(=O)[C@H](Cc3ccccc3)NC(=O)[C@H](C(C)C)NC(=O)[C@H](CCCNC(=N)N)NC(=O)[C@H](Cc3ccccc3)NC(=O)[C@H]([C@@H](C)O)NC2=O)C[C@H]2O[C@]1(C)n1c3ccccc3c3c4c(c5c6ccccc6n2c5c31)C(=O)NC4 [compound 7] ({Staurosporine-Suc-βAla-βAla-βAla-βAla-βAla-βAla-βAla}-DTFRVFG[Dap]G-NH2; lactam 1-8),sensitivity to reducing conditions,PKA [4],insensitive to reducing conditions
